According to PMC5995442, “Drug discovery with an RBM20 dependent titin splice reporter identifies cardenolides as lead structures to improve cardiac filling” (PLoS ONE, 2018):
“Also recorded” adds a separate entry of the source. Read-outs that look alike come from different tables or passages of the source. One block for each molecule: values may come before it. Residues, ends and D or L forms follow the SMILES beside them. *: point of attachment. Cbz = O=C(OCc1ccccc1)*

Key:
[1] = system: RBM20 dependent titin PEVK4-13 splicing reporter; experiment: Dual luciferase splicing reporter assay (DLR assay), RBM20 co-transfected; format: cell-based, human; conditions: for IC50: Homo sapiens
Text: The objective of our study was to identify and evaluate small molecules with the potential to modulate alternative splicing via an unbiased chemical high-throughput screening approach. Using transient transfection of a dual luciferase splicing reporter assay (DLR-assay) in HEK293.EBNA cells and a RBM20 expression construct, we investigated >34.000 substances for their effect on alternative exon exclusion from our RBM20 dependent titin PEVK4-13 splicing reporter. For the primary screen (pilot screen), each compound was tested at 10 μM (single point) and compared to an untreated control. Positive hits leading to differential exon usage (exceeding three standard deviations) were picked for independent validation in 9 serial 2-fold dilutions starting at 20 μM. Compounds that produced a concentration dependent effect were validated manually in the 96-well format and cytotoxicity was evaluated. To minimize the detection of false positives, we excluded compounds with structural homology to each luciferase’s natural substrate. To determine the EC50 of candidates we calculated dose response curves using a non-linear least-squares fitting routine available within the GNUPLOT package (accessible online: http://ic50.tk/index.html). […] Compounds that produced a concentration depend effect in the DLR-assay and altered the alternative transcript levels were regarded as validated alternative splicing modulators.
(§1) Cells transfected were at a confluency of 50-60%.
5000 HEK293.EBNA cells were seeded in clear bottom, white 384-well plates (Corning by Sigma-Aldrich Chemie GmbH, Munich, Germany) using an automated cell dispenser (Biotek, Bad Friedrichshall, Germany). 24 h after cell seeding the expression plasmids were delivered using a Freedom EVO® robotic workstation (TECAN, Maennedorf, Switzerland) equipped with a MultiChannel Arm™. Cells were transiently transfected with 45 ng plasmid DNA ([…] and 40 ng RBM20 or 24 ng of the negative control pcDNA3.1 ad 45 ng with bacterial expression plasmid pBSSK). Compounds were added to the plates the following day using the same robotic platform. Luciferase activity was determined using Dual-Glo® Luciferase Assay System (Promega GmbH, Mannheim, Germany) on an Infinite® M1000 Pro (TECAN, Maennedorf, Switzerland) plate reader around 60 hours post-transfection. Assay robustness was evaluated by calculation z’ scores using an online tool provided by the Screening Unit at FMP Berlin (http://www.screeningunit-fmp.net/tools/z-prime.php).

[2] = system: HEK293.EBNA cells; experiment: Cell viability, resazurin based staining (PrestoBlue); set-up: species or system human; conditions: for IC50: Homo sapiens, HEK293-EBNA, HEK293 cells, 60 h post-transfection, RBM20/titin reporter transfected, read-out: Viability IC50
Text: as §1

[3] = system: RBM20 protein levels; experiment: RBM20 protein expression by immunoblot in co-transfected HEK293 cells; format: cell-based, human; conditions: proteasome inhibitor added to digoxin treated HEK293 cells
Protocol: For immunodetection, HEK293.EBNA samples were harvested by rinsing them of the cell culture substrate using PBS at 37°C and subsequently used for downstream processing or snap frozen in liquid nitrogen. For protein extraction samples were suspended in RIPA buffer (50 mM Tris pH 8.0, 150 mM NaCl, 1% NP-40, 0.25% sodium deoxycholate, 1.0 mM EDTA; 0.1% SDS) and lysed via sonication with 20 bursts at 70% energy using a VialTweeter (Hielscher Ultrasonics GmbH, Teltow, Germany). Protein concentration was estimated after 20’ precipitation of cell debris at 13,000xg for 20 min at 4°C using BCA assay (Life Technologies GmbH, Darmstadt, Germany [23225]). Samples were kept cool at any time. Lysates were separated by SDS-PAGE [14] and blotted on PVDF membranes. Blotted antigens were probed with mouse anti-c-myc 9E10 ([M5546], Sigma-Aldrich Chemie GmbH, Munich, Germany) tag antibody at 1:2000 and detected using a sheep anti-mouse IgG-HRP (GE Healthcare Europe GmbH, Freiburg, Germany [NA9310V]) conjugate 1:5000 follow by visualization with AceGlow™ (VWR PEQL37) on a FUSION FX7 CCD camera system (Vilber Lourmat Deutschland GmbH, Eberhardzell, Germany).

[4] = target: human serum albumin (HSA) (Homo sapiens, UniProt P02768); experiment: Surface plasmon resonance, immobilized human serum albumin (positive control); format: binding; conditions: SPR, increasing concentrations
human serum albumin (HSA), sequence (P02768 25-609): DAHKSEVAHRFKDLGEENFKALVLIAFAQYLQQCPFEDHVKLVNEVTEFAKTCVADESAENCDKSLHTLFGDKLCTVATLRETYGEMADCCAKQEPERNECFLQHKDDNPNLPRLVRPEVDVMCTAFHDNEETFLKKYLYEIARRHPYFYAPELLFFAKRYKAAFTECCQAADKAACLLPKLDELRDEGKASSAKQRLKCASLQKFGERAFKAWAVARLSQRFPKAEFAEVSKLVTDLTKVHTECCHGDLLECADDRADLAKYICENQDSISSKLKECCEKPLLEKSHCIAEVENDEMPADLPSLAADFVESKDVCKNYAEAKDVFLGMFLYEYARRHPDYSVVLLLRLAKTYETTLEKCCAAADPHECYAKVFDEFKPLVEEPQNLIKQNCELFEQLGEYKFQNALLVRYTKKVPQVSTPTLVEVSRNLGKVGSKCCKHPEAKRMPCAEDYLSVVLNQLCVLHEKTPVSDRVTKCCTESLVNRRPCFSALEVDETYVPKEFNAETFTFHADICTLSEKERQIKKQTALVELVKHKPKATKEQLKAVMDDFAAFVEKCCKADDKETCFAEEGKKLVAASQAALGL

[5] = target: T1, RNA recognition motif (RRM) of RBM20 (Homo sapiens, UniProt Q5T481); experiment: Surface plasmon resonance, immobilized RBM20-RRM; format: binding; conditions: SPR, increasing concentrations
T1 construct: The RRM domain of RBM20 was cloned into pGEX-6P-1 bacterial expression plasmid; GST (N); made in house; host or cells: E. coli Rosetta 2 (DE3)
T1 sequence (Q5T481 518-593 limits assumed): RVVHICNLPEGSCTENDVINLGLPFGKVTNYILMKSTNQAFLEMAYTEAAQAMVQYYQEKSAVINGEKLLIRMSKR
Protocol: The RRM domain of RBM20 was cloned into pGEX-6P-1 bacterial expression plasmid and expressed in E. coli Rosetta™ 2 (DE3) (Novagen by Merck KgaA, Darmstadt, Germany). After purification of the recombinant protein using glutathione-sepharose (Sigma-Aldrich Chemie GmbH, Munich, Germany) the purified fraction was dialyzed o/n in reaction buffer (20 mM HEPES pH7, 200 mM NaCl, 1 mM MgCl2, 10% glycerol). The surface plasmon resonance study (SPR) was performed on a Biacore T100 (GE Healthcare Europe GmbH, Freiburg, Germany) using amine coupling. Chip surface was activated with 0.2 M EDC/0.4 M NHS. 30 μg of human serum albumin (HSA) (positive control) or RBM20-RRM were linked to the activated chip surface at pH 4.5 in 10 mM sodium acetate.

[6] = system: titin minigene TTN Ex241-43 transcripts; experiment: RT-PCR / RT-qPCR of transcripts from titin minigene TTN Ex241-43 (I96-98); format: cell-based, human; conditions: HEK293 transfected with RBM20 and minigene I96-98
Text: The objective of our study was to identify and evaluate small molecules with the potential to modulate alternative splicing via an unbiased chemical high-throughput screening approach. Using transient transfection of a dual luciferase splicing reporter assay (DLR-assay) in HEK293.EBNA cells and a RBM20 expression construct, we investigated >34.000 substances for their effect on alternative exon exclusion from our RBM20 dependent titin PEVK4-13 splicing reporter. For the primary screen (pilot screen), each compound was tested at 10 μM (single point) and compared to an untreated control. Positive hits leading to differential exon usage (exceeding three standard deviations) were picked for independent validation in 9 serial 2-fold dilutions starting at 20 μM. Compounds that produced a concentration dependent effect were validated manually in the 96-well format and cytotoxicity was evaluated. To minimize the detection of false positives, we excluded compounds with structural homology to each luciferase’s natural substrate. To determine the EC50 of candidates we calculated dose response curves using a non-linear least-squares fitting routine available within the GNUPLOT package (accessible online: http://ic50.tk/index.html). We evaluated the effect on splice activity on the RNA level by RT-qPCR of isoforms generated from a titin minigene containing TTN Ex241-43 (corresponding to TTN I-band exon I96-98) in the presence of the potential splice modulators. […]
Total RNA from HEK293.EBNA cells was extracted using RNeasy Micro Kit (Qiagen, Hilden, Germany) according to the manufacturer’s instructions. […] Quantitative RT-PCR was performed using SYBRGreen master mix (Applied Biosystems by Thermo Fisher Scientific Inc., USA) on a 7900 HT RT-cycler (Applied Biosystems by Thermo Fisher Scientific, Inc., USA). […] To quantification gene expression, we used the ΔΔCT method normalized to 18S or to the alternative transcripts generated from the splicing reporter. PSI values were calculated as ratio of unspliced and spliced reporter transcript. […]

[7] = target: Na+/K+ ATPase human erythrocytes; set-up: method as in PMID 11072868; conditions: cited from earlier work
[8] = system: HEK293 cells gene expression; experiment: Expression profiling of digitoxin treated HEK293 cells (GSE36058); format: cell-based, human; conditions: digitoxin treated HEK293, GEO dataset GSE36058
Protocol: Expression profiling data (Gene Expression Omnibus—GSE36058) was analyzed using AltAnalyze [16]—gene expression cut-off = 1.0.

[9] = FLuc/RLuc ratio, HEK293 cells, 96-well format, inset table of figure, read-out: Splicing IC50
[10] = HEK293, Table 1, read-out: IC50 Splicing HEK293 cells
[11] = dose response fit, head prints [μM], fits IC50 only

Molecule: Cymarol
effect on RBM20-mediated titin splicing (in words) ([1]; DLR assay, HEK293): independently validated | concentration at which effect on titin splicing starts ([1]; DLR assay, N = 4): < 100 nM

Molecule: C[C@]12CC[C@H]3[C@@H](CC[C@]4(O)C[C@@H](O)CC[C@]34CO)[C@@]1(O)CC[C@@H]2C1=CC(=O)OC1 [Strophanthidol]
IC50 [2]: 3070 ± 634 nM | IC50 [1, 9]: 3840 ± 443 nM

Molecule: C[C@]12CC[C@H](O)C[C@H]1CC[C@@H]1[C@@H]2CC[C@]2(C)[C@@H](C3=CC(=O)OC3)[C@@H](O)C[C@]12O [Gitoxigenin]
effect on RBM20-mediated titin splicing (in words) ([1]; DLR assay, HEK293): independently validated

Molecule: CC(C)C[C@@H](C=O)NC(=O)[C@H](CC(C)C)NC(=O)[C@H](CC(C)C)NC(=O)OCc1ccccc1 [MG132] (Cbz-Leu-Leu-Leu-aldehyde)
rescue of RBM20 protein expression under digoxin [3]: did not rescue RBM20 protein expression

Molecule: CC(=O)O[C@H]1CC[C@@]2(C)[C@H](CC[C@@H]3[C@@H]2CC[C@]2(C)[C@@H](C4=CC(=O)OC4)CC[C@]32O)C1 [Digitoxigenin-3-acetate, Digitoxigenin 3-acetate]
effect on RBM20-mediated titin splicing (in words) ([1]; DLR assay, HEK293): independently validated

Molecule: C[C@]12CC[C@H](O)C[C@H]1CC[C@@H]1[C@@H]2CC[C@]2(C)[C@@H](C3=CC(=O)OC3)CC[C@]12O [Digitoxigenin]
binding to human serum albumin (HSA) [4]: strongly bind | IC50 [2]: 468 ± 26.9 nM | IC50 ([1]; HEK293, read-out: Splicing IC50): 417 ± 99.5 nM | binding to RNA recognition motif (RRM) of RBM20 [5]: not the RNA recognition motif (RRM) of RBM20

IC50 [1, 9]: 178000 nM
Molecule: COc1ccc(-c2cc(=O)c3c(O)cc(O)c(-c4cc(-c5cc(=O)c6c(O)cc(O)cc6o5)ccc4OC)c3o2)cc1 [Isoginkgetin]
IC50 [2]: 10800 ± 13100 nM | dose at which an effect on RBM20 dependent splicing and general mRNA maturation was found ([1]; only at the highest toxic dose): 30 µM | intron retention / mRNA maturation (in words) [6]: reduces alternative splicing and mRNA maturation; also recorded: affects mRNA maturation with increasing concentration

Molecule: C[C@@H]1O[C@@H](O[C@H]2C[C@@H](O)[C@]3(CO)[C@H]4[C@H](O)C[C@]5(C)[C@@H](C6=CC(=O)OC6)CC[C@]5(O)[C@@H]4CC[C@]3(O)C2)[C@H](O)[C@H](O)[C@H]1O [Ouabain]
IC50 [7]: 0.56 nM | effect on RBM20-mediated titin splicing (in words) ([1]; DLR assay, HEK293): suppresses RBM20 mediated titin splicing | IC50 [1, 10]: 1670 nM

Molecule: C[C@]12CCC(=O)C=C1CC[C@@H]1[C@@H]2[C@@H](O)C[C@@]2(C)[C@H]1CC[C@]2(O)C(=O)CO [Hydrocortisone]
effect on RBM20-mediated titin splicing (in words) ([1]; DLR assay, HEK293): did not interfere with splicing; also recorded: does not interfere with splicing activity; also recorded: do not interfere with RBM20 dependent splicing

Molecule: C[C@H]1O[C@@H](O[C@H]2[C@@H](O)C[C@H](O[C@H]3[C@@H](O)C[C@H](O[C@H]4CC[C@@]5(C)[C@H](CC[C@@H]6[C@@H]5CC[C@]5(C)[C@@H](C7=CC(=O)OC7)CC[C@]65O)C4)O[C@@H]3C)O[C@@H]2C)C[C@H](O)[C@@H]1O [Digitoxin]
proteins associated with RBM20 dependent splicing down regulated (of 39) [8]: 10 | proteins associated with RBM20 dependent splicing upregulated (of 39) [8]: 8 | binding to human serum albumin (HSA) [4]: strongly bind | IC50 [7]: 0.25 nM | IC50 [2]: 66.3 ± 5.5 nM | Viability Hill Coeff. [2, 11]: 2.0260 ± 0.2941 | Viability Max ([2]; fit maximum of relative viability, head prints [μM], fits IC50 only): 1.0033 ± 0.0211 | effect on RBM20-mediated titin splicing (in words) ([1]; DLR assay, HEK293): efficiently inhibit RBM20 mediated splicing | IC50 [1, 10]: 56 nM | Splicing Hill Coeff. [1, 11]: 2.3582 ± 1.3110 | binding to RNA recognition motif (RRM) of RBM20 [5]: not the RNA recognition motif (RRM) of RBM20

Molecule: CO[C@H]1C[C@H](O[C@H]2CC[C@@]3(C)[C@H](CC[C@@H]4[C@@H]3CC[C@]3(C)[C@@H](C5=CC(=O)OC5)[C@@H](OC(C)=O)C[C@]43O)C2)O[C@@H](C)[C@@H]1O [Oleandrin]
IC50 [2]: 30.5 ± 1.2 nM | IC50 ([1]; DLR assay HEK293, read-out: splicing IC50): 20 nM
